Holding throughout (assay): relative viability (nuclei count vs DMSO), 5 days (fraction); higher = more cells survive
Compound in one experiment: CC1(COc2ccc3c(c2)ncn3-c2ccc3cccc(N4CCC(N)CC4)c3n2)COC1 [Crenolanib]
Summed up:
(§1)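 Viability is treated-well nuclei as a fraction of vehicle-well nuclei, reported as the median across plates. Before counting, lung cancer cell lines were kept overnight at 37 °C in 1536-well plates, pinned with five √10-spaced library-drug doses on vehicle-anchored plates, and left 5 days without medium change, then fixed, permeabilised and Hoechst-stained in one step, imaged at 4× and counted by MetaXpress. A plate passed only if control CV was below 25% and at least one doubling occurred.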

Compound in the next experiment: O=C1NC(=O)[C@@H](c2cn3c4c(cccc24)CCC3)[C@@H]1c1c[nH]c2ccccc12 [Tivantinib]
The essentials: as §1

Compound in the experiment “Crenolanib + Palbociclib”: CC1(COc2ccc3c(c2)ncn3-c2ccc3cccc(N4CCC(N)CC4)c3n2)COC1 [Crenolanib] + CC(=O)c1c(C)c2cnc(Nc3ccc(N4CCNCC4)cn3)nc2n(C2CCCC2)c1=O [Palbociclib] (partner 0.5 µM)
The essentials: (§2)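 Relative viability divides the nuclei count in treated wells by that in vehicle wells. Lung cancer cell lines were seeded in 1536-well plates, dosed by pin tool the next day, and fixed and stained after 5 days in one step with final 0.05% Triton X-100, 1% formaldehyde and 1 ug/ml Hoechst. Dosing was a single drug or a fixed anchor-drug dose plus five library-drug doses (not always all listed) in √10 steps, and values are medians of duplicate plates imaged at 4×.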

Compound in the experiment “Crenolanib + Tozasertib”: CC1(COc2ccc3c(c2)ncn3-c2ccc3cccc(N4CCC(N)CC4)c3n2)COC1 [Crenolanib] + Cc1cc(Nc2cc(N3CCN(C)CC3)nc(Sc3ccc(NC(=O)C4CC4)cc3)n2)n[nH]1 [Tozasertib] (partner 0.1 µM)
The essentials: as §2

On to UMC-11, for which the relative viability with Crenolanib (0.01 µM) worked out at 0.963; with Crenolanib (0.03162 µM) it was 0.978; in the experiment with Crenolanib (0.1 µM), 0.972; with Crenolanib (0.3162 µM) it was 1.01; in the experiment with Crenolanib (1 µM) it was 0.931; with Tivantinib (0.01 µM), 0.966. Also, the relative viability was determined as 0.842 with Tivantinib (0.03162 µM); 0.923 with Tivantinib (0.1 µM); 1.03 in the experiment with Tivantinib (0.3162 µM); 0.391 with Crenolanib + Palbociclib (first compound 0.01 µM); 0.334 in the experiment with Crenolanib + Palbociclib (first compound 0.03162 µM); 0.349 in the experiment with Crenolanib + Palbociclib (first compound 0.1 µM). In addition, the relative viability with Crenolanib + Palbociclib (first compound 0.3162 µM) is 0.286; with Crenolanib + Palbociclib (first compound 1 µM), 0.352; with Crenolanib + Tozasertib (first compound 0.01 µM) it was 0.193; with Crenolanib + Tozasertib (first compound 0.03162 µM), 0.207; with Crenolanib + Tozasertib (first compound 0.1 µM) it was 0.213; with Crenolanib + Tozasertib (first compound 0.3162 µM), 0.189. For the same cell line, the relative viability with Crenolanib + Tozasertib (first compound 1 µM) was 0.192.
